Source: ChEMBL document CHEMBL1135876, “N-alkylaminoacids and their derivatives interact with melanocortin receptors” (Bioorg Med Chem Lett, 2002)

Columns and labels:
[1] = target: Melanocortin receptor 4 (Homo sapiens, UniProt P32245); assay: Binding affinity in competition with [125I]NDP-MSH on recombinant melanocortin 4 receptor
[2] = target: T1, Melanocyte-stimulating hormone receptor (Homo sapiens, UniProt Q01726); assay: Binding affinity in competition with [125I]NDP-MSH on recombinant melanocortin 1 receptor
T1 sequence (Q01726 whole entry): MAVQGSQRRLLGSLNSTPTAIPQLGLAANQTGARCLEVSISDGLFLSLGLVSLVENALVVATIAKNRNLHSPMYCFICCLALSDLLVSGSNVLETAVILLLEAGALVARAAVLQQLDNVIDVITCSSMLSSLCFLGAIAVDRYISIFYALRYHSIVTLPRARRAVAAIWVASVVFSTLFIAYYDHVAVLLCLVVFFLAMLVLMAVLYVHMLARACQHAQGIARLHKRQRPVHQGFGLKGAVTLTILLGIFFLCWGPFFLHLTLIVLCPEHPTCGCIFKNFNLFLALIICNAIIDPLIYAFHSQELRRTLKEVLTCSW

[3] = target: Melanocortin receptor 3 (Homo sapiens, UniProt P41968); assay: Binding affinity in competition with [125I]NDP-MSH on recombinant melanocortin 3 receptor
Melanocortin receptor 3, sequence (P41968 whole entry): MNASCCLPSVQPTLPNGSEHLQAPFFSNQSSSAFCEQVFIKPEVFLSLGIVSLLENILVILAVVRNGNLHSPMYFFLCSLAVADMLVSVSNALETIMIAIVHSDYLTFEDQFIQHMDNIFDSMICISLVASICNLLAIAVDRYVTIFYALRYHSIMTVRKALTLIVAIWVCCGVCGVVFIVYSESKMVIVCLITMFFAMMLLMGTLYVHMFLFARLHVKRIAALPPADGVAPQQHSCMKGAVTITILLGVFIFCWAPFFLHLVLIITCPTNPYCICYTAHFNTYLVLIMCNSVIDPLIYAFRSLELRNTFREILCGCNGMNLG

[4] = target: T2, Melanocortin receptor 5 (Homo sapiens, UniProt P33032); assay: Binding affinity in competition with [125I]NDP-MSH on recombinant melanocortin 5 receptor
T2 sequence (P33032 whole entry): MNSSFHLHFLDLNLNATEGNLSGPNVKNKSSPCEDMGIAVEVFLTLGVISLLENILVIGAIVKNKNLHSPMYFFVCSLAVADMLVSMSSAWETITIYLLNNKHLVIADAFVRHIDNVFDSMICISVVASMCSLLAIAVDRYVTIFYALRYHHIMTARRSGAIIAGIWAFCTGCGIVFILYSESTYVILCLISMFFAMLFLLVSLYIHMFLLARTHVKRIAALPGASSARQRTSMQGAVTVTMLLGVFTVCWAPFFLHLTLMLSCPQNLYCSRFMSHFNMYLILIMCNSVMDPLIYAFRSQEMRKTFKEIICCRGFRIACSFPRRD

[5] = target: T2, Melanocortin receptor 5; assay: Tested for its binding affinity in competition with [125I]NDP-MSH on recombinant Melanocortin 5 receptor; nb = no binding
[6] = target: T1, Melanocyte-stimulating hormone receptor; assay: Tested for its binding affinity in competition with [125I]NDP-MSH on recombinant human Melanocortin 1 receptor; nb = no binding

Melanocortin receptor 4, sequence (P32245 whole entry): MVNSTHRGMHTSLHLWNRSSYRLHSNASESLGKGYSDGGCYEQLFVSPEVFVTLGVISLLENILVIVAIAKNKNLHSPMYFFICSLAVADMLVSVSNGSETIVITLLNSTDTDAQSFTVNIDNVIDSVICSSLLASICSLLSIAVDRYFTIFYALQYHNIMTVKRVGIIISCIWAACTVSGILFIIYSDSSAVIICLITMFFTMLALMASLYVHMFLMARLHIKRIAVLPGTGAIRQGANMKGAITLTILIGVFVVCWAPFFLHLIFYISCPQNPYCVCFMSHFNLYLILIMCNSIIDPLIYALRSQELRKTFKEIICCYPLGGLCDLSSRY

| Ki [1] [µM] | Ki [2] [µM] | Ki [3] [µM] | Ki [4] [µM] | Structure (SMILES) | Ki [5] | Ki [6] |
| --- | --- | --- | --- | --- | --- | --- |
| > 1 | > 1 | > 1 | > 1 | COc1ccc(CN[C@H](CCCNC(=N)N)C(=O)O)c(Cl)c1OC | – | – |
| > 1 | > 1 | > 1 | > 1 | N=C(N)NCCC[C@H](NCc1c[nH]c2ccccc12)C(N)=O | – | – |
| > 1000 | > 1000 | > 1000 | 125 | N=C(N)NCCC[C@@H](NCc1ccc2ccccc2c1)C(N)=O | – | – |
| 134 | > 1000 | 155 | 130 | N=C(N)NCCC[C@H](NCC1CCc2ccccc2C1)C(N)=O (some centres undefined) | – | – |
| 30 | 4.5 | 4.8 | – | N=C(N)NCCCNC(=O)[C@H](CCCN=C(N)N)NCc1ccc2ccccc2c1 | Not Active | – |
| 15 | 5.9 | 28 | 15 | C=CCOC(=O)[C@H](CCCNC(=N)N)NCc1ccc2ccccc2c1 | – | – |
| 205 | > 1000 | > 1000 | 184 | N=C(N)NCCC[C@H](NCc1c[nH]c2ccccc12)C(=O)N[C@@H](Cc1c[nH]c2ccccc12)C(N)=O | – | – |
| 279 | 2.9 | 82 | 221 | NC(N)=NCCCNC(=O)[C@@H]1C[C@H](O)CN1Cc1ccc2ccccc2c1 | – | – |
| 150 | – | 161 | 50 | O=C(NCCc1c[nH]cn1)[C@@H]1C[C@H](O)CN1Cc1ccc2ccccc2c1 | – | Not Active |
| > 1 | > 1 | > 1 | > 1 | N=C(N)NCCC[C@H](NCc1ccc2ccccc2c1)C(N)=O | – | – |
| > 1 | > 1 | > 1 | > 1 | COc1ccc(CN[C@@H](CCCN=C(N)N)C(N)=O)cc1OC | – | – |
| > 1 | > 1 | > 1 | > 1 | N=C(N)NCCC[C@@H](NCc1c[nH]c2ccccc12)C(N)=O | – | – |
| > 1 | > 1 | > 1 | > 1 | COc1ccc(CN[C@H](CCCNC(=N)N)C(=O)O)cc1OC | – | – |
| > 1 | > 1 | > 1 | > 1 | COc1ccc(CNC(CCCN=C(N)N)C(=O)O)cc1OC (centres undefined) | – | – |
| 14 | 2.9 | 14 | 6.6 | N=C(N)NCCC[C@H](NCc1ccc2ccccc2c1)C(=O)Nc1ccc2ccccc2c1 | – | – |
| 139 | 8.7 | 56 | 42 | NC(=O)[C@H](Cc1c[nH]c2ccccc12)NCc1ccc2ccccc2c1 | – | – |
| > 1 | > 1 | > 1 | > 1 | COc1ccc(CN[C@@H](CCCNC(=N)N)C(N)=O)c(Cl)c1OC | – | – |
| > 1 | > 1 | > 1 | > 1 | NC(N)=NCCCC(NCc1c[nH]c2ccccc12)C(=O)O (centres undefined) | – | – |
| 64 | 15 | 53 | 37 | NC(=O)[C@@H](Cc1c[nH]c2ccccc12)NCc1ccc2ccccc2c1 | – | – |
| 56 | 32 | 147 | 56 | N=C(N)NCCC[C@@H](NCc1ccc2ccccc2c1)C(=O)N[C@@H](Cc1c[nH]c2ccccc12)C(N)=O | – | – |
| > 1000 | 74 | > 1000 | 95 | NC(=O)[C@@H](Cc1ccc2ccccc2c1)NCc1c[nH]c2ccccc12 | – | – |
| > 1 | > 1 | > 1 | > 1 | NC(N)=NCCC[C@@H](NCc1c[nH]c2ccccc12)C(=O)O | – | – |
| 6.8 | 1.3 | 6.4 | 8.7 | N=C(N)NCCC[C@H](NCc1ccc2ccccc2c1)C(=O)Nc1cccc2ccccc12 | – | – |
| > 1000 | 26 | > 1000 | 60 | NC(=O)[C@H](Cc1ccc2ccccc2c1)NCc1c[nH]c2ccccc12 | – | – |
| 105 | 29 | 107 | 74 | N=C(N)NCCC[C@H](NCc1ccc2ccccc2c1)C(=O)N[C@@H](Cc1c[nH]c2ccccc12)C(N)=O | – | – |

| Structure (SMILES) | Ki [1] [µM] | Ki [2] [µM] | Ki [3] [µM] | Ki [4] [µM] | Ki [5] | Ki [6] |
| --- | --- | --- | --- | --- | --- | --- |
| O=C(NCc1ccc2ccccc2c1)[C@H]1CCCN1CCc1c[nH]c2ccccc12 | 166 | – | 752 | – | Not Active | Not Active |
